Our source for the GI50 and IC50 values is patent US20220242870A1, “HETEROCYCLE-FUSED PYRIMIDINE DERIVATIVE AND USE THEREOF” (VORONOI Inc., priority 2019, published 2022).

The test system of assay [1] is RS4;11 cells. In words: AML cell proliferation inhibitory activity (CellTiter-Glo). The settings on record: Homo sapiens, 72 hours. It counts as cell-based. Put shortly:
(§1)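 RS4;11 and MV4-11 cells in RPMI-1640 with 10% FBS, seeded 24 h before treatment, then exposed 72 h to 12 three-fold dilutions (0.3 nM–50 μM final). Viability by CellTiter-Glo luminescence relative to solvent control; GI50 from triplicate experiments.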

Assay [2] has as its system MV4-11 cells. Described as above. It counts as cell-based. The settings on record: Homo sapiens, 72 hours. Put shortly:
as §1

Assay [3] addresses T1, human GST-HPK1 (1-346) (Homo sapiens, UniProt Q92918).
T1 construct: purified human GST-HPK1 (1-346, Signalchem) enzyme; purchased Signalchem
T1 sequence (Q92918 1-346): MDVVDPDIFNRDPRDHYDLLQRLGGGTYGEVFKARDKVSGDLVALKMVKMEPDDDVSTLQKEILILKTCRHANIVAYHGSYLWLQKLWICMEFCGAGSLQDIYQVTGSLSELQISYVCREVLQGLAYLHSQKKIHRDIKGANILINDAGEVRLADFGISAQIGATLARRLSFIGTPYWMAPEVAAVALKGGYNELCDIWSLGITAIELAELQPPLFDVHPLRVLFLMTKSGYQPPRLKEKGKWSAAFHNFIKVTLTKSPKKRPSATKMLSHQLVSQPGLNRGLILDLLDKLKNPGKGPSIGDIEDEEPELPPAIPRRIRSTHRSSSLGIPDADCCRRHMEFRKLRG
In words: HPK1 enzyme inhibitory ability (ADP-Glo kinase assay). In kind it is biochemical. As to conditions: human GST-HPK1 3 ng, ATP 3 uM, 25° C. 2 hours. Put shortly: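 Human GST-HPK1(1-346), 3 ng, reacted with 3 uM ATP and specific substrate in 40 mM Tris-HCl pH 7.4, 20 mM MgCl2, 0.5 mg/mL BSA, 50 uM DTT for 2 h at 25° C. ADP-Glo luminescence read; IC50 (nM) relative to untreated solvent control.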

For assay [4], the target named is T2, human FLT3-ITD enzyme (Homo sapiens, UniProt P36888).
T2 sequence (P36888 1-993): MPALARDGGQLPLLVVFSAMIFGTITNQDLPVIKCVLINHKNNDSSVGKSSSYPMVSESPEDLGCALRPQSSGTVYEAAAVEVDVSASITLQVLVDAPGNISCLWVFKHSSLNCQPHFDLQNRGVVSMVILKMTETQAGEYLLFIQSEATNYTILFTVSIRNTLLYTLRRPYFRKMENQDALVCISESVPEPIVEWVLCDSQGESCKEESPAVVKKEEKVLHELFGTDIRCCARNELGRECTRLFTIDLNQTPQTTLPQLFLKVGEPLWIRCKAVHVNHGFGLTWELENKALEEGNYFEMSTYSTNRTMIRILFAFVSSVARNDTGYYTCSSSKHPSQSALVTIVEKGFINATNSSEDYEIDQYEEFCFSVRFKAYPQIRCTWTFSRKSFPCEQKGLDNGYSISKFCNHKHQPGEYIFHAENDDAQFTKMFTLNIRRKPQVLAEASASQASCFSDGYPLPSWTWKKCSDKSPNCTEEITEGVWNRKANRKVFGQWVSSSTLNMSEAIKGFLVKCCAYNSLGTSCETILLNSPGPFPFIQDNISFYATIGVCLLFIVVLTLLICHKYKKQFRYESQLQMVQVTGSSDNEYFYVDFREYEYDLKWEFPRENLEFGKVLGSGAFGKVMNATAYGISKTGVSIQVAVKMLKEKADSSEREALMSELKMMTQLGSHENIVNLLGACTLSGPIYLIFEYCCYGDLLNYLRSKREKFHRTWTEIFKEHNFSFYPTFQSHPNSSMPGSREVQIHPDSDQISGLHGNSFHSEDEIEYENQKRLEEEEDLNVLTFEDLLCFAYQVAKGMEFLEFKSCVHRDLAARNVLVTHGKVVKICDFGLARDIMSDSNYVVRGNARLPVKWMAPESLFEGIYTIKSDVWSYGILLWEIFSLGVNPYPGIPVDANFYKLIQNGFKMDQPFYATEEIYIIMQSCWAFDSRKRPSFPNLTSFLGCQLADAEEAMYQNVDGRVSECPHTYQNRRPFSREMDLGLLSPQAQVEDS
In words: FLT3 enzyme inhibitory ability (ADP-Glo kinase assay). In kind it is biochemical. As to conditions: human FLT3-ITD enzyme 10 ng, ATP 10 μM, 25° C. 1 hour. Put shortly:
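Purified human FLT3-ITD (10 ng) with 10 μM ATP and specific substrate in 40 mM Tris-HCl pH 7.4, 20 mM MgCl2, 0.5 mg/mL BSA, 50 μM DTT, 1 h at 25 °C. ADP formation read by ADP-Glo luminescence; IC50 (nM) versus solvent-treated control.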

In assay [5] the test system is MCF-7 cells. In words: Breast cancer cell line proliferation inhibitory activity (CellTiter-Glo 2.0). It counts as cell-based. As to conditions: Homo sapiens, MCF7, 120 hours. Put shortly: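 MCF-7 cells exposed to a 12-point, 3-fold dilution series (final 0.00005–10 μM) for 120 h at 37 °C. Viability read by CellTiter-Glo 2.0 luminescence, expressed as percent of vehicle-treated cells. GI50 (nM) derived from the curves.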

Some results are limits rather than exact numbers.

Regarding `CN1CCC(Oc2ccc(Nc3nc(N4N=CCC4c4ccccc4)c4sccc4n3)cc2)CC1` (stereo not shown) [Example 13, N-(4-((1-methylpiperidin-4-yl)oxy)phenyl)-4-(5-phenyl-4,5-dihydro-1H-pyrazol-1-yl)thieno[3,2-d]pyrimidin-2-amine], the GI50 in assay [1] is > 500 nM; in assay [2], 250 to 500 nM; in assay [5] it was > 500 nM. Also, the IC50 in assay [3] and in assay [4] was > 500 nM in each case.

On to `CN1CCC(NC(=O)c2ccc(Nc3nc(N4N=CCC4c4ccccc4)c4sccc4n3)cc2)CC1` (stereo not shown) [Example 19, N-(1-methylpiperidin-4-yl)-4-((4-(5-phenyl-4,5-dihydro-1H-pyrazol-1-yl)thieno[3,2-d]pyrimidin-2-yl)amino)benzamide], for which the GI50 in assay [1] is > 500 nM; in assay [2], ≥ 250 nM; in assay [5], > 500 nM. The IC50 in assay [3] is > 500 nM; in assay [4], ≥ 250 nM.

As for `CN1Cc2cc(Nc3nc(N4N=CCC4c4ccccc4)c4sccc4n3)ccc2C1=O` (stereo not shown) [Example 25, 2-methyl-5-((4-(5-phenyl-4,5-dihydro-1H-pyrazol-1-yl)thieno[3,2-d]pyrimidin-2-yl)amino)isoindolin-1-one], the GI50 is > 500 nM in assay [1], 250 to 500 nM in assay [2] and > 500 nM in assay [5]. Moreover, the IC50 in assay [3] and in assay [4] was > 500 nM in each case.

In the case of `CN(C)CCCn1cc(Nc2nc(N3N=CCC3c3ccccc3)c3sccc3n2)cn1` (stereo not shown) [Example 26, N-(1-(3-(dimethylamino)propyl)-1H-pyrazol-4-yl)-4-(5-phenyl-4,5-dihydro-1H-pyrazol-1-yl)thieno[3,2-d]pyrimidin-2-amine], the concentration for 50% growth inhibition (GI50) in assay [1], in assay [2] and in assay [5] was > 500 nM in each case. The IC50 in assay [3] and in assay [4] was > 500 nM in each case.

For `C1=NN(c2nc(Nc3cnn(C4CCNCC4)c3)nc3ccsc23)C(c2ccccc2)C1` (stereo not shown) [Example 28, 4-(5-phenyl-4,5-dihydro-1H-pyrazol-1-yl)-N-(1-(piperidin-4-yl)-1H-pyrazol-4-yl)thieno[3,2-d]pyrimidin-2-amine], the 50% growth inhibitory concentration (GI50) in assay [1] was > 500 nM; in assay [2] it was ≥ 250 nM; in assay [5] it was > 500 nM. The values for the half-inhibitory concentration (IC50) in assay [3] and in assay [4] were > 500 nM and ≥ 250 nM, respectively.

For the compound `CN1CCC(n2cc(Nc3nc(N4N=CCC4c4ccccc4)c4sccc4n3)cn2)CC1` (stereo not shown) [Example 29, N-(1-(1-methylpiperidin-4-yl)-1H-pyrazol-4-yl)-4-(5-phenyl-4,5-dihydro-1H-pyrazol-1-yl)thieno[3,2-d]pyrimidin-2-amine], the results for the concentration for 50% growth inhibition (GI50) in assay [1], in assay [2] and in assay [5] were > 500 nM, 250 to 500 nM and > 500 nM, respectively. In addition, the IC50 in assay [3] and in assay [4] was > 500 nM throughout.

As for `CN1CCN(c2ccc(Nc3nc(N4N=CCC4C4CCCCC4)c4sccc4n3)cc2)CC1` (stereo not shown) [Example 30, 4-(5-cyclohexyl-4,5-dihydro-1H-pyrazol-1-yl)-N-(4-(4-methylpiperazin-1-yl)phenyl)thieno[3,2-d]pyrimidin-2-amine], the GI50 in assay [1] was ≥ 250 nM; in assay [2], 250 to 500 nM; in assay [5], > 500 nM. Besides, the IC50 in assay [3] and in assay [4] was > 500 nM throughout.

For the compound `CN1CCN(c2ccc(Nc3nc(N4N=CCC4c4ccc5ccccc5c4)c4sccc4n3)cc2)CC1` (stereo not shown) [Example 31, N-(4-(4-methylpiperazin-1-yl)phenyl)-4-(5-(naphthalen-2-yl)-4,5-dihydro-1H-pyrazol-1-yl)thieno[3,2-d]pyrimidin-2-amine], the GI50 in assay [1], in assay [2] and in assay [5] was > 500 nM in each case. Besides, the IC50 in assay [3] and in assay [4] was > 500 nM in each case.

Turning to `CN1CCN(c2ccc(Nc3nc(N4N=CCC4c4cccnc4)c4sccc4n3)cc2)CC1` (stereo not shown) [Example 34, N-(4-(4-methylpiperazin-1-yl)phenyl)-4-(5-(pyridin-3-yl)-4,5-dihydro-1H-pyrazol-1-yl)thieno[3,2-d]pyrimidin-2-amine], the GI50 in assay [1], in assay [2] and in assay [5] was > 500 nM each time. For the same compound, the IC50 in assay [3] and in assay [4] was > 500 nM in each case.

`CN1CCN(c2ccc(Nc3nc(N4N=CCC4c4ccncc4)c4sccc4n3)cc2)CC1` (stereo not shown) [Example 35, N-(4-(4-methylpiperazin-1-yl)phenyl)-4-(5-(pyridin-4-yl)-4,5-dihydro-1H-pyrazol-1-yl)thieno[3,2-d]pyrimidin-2-amine]: the GI50 in assay [1] was > 500 nM; in assay [2] it was 250 to 500 nM; in assay [5], > 500 nM. The IC50 in assay [3] and in assay [4] was > 500 nM in each case.

Regarding `CCN1CCN(C2CCN(c3ccc(Nc4nc(N5N=CCC5c5ccccc5)c5sccc5n4)cc3)CC2)CC1` (stereo not shown) [Example 37, N-(4-(4-(4-ethylpiperazin-1-yl)piperidin-1-yl)phenyl)-4-(5-phenyl-4,5-dihydro-1H-pyrazol-1-yl)thieno[3,2-d]pyrimidin-2-amine], the GI50 in assay [1] is > 500 nM; in assay [2] it was ≥ 250 nM; in assay [5], > 500 nM. For the same compound, the IC50 is > 500 nM in assay [3] and 250 to 500 nM in assay [4].

`CN(C)C1CCN(c2ccc(Nc3nc(N4N=CCC4c4ccccc4)c4sccc4n3)cc2)CC1` (stereo not shown) [Example 38, N-(4-(4-(dimethylamino)piperidin-1-yl)phenyl)-4-(5-phenyl-4,5-dihydro-1H-pyrazol-1-yl)thieno[3,2-d]pyrimidin-2-amine]: the GI50 in assay [1] is > 500 nM; in assay [2], ≥ 250 nM; in assay [5] it was > 500 nM. The values for the IC50 in assay [3] and in assay [4] were > 500 nM and ≥ 250 nM, respectively.

Turning to `CN(C)[C@@H]1CCN(c2ccc(Nc3nc(N4N=CCC4c4ccccc4)c4sccc4n3)cc2)C1` (stereo partly drawn) [Example 43, N-(4-((R)-3-(dimethylamino)pyrrolidin-1-yl)phenyl)-4-(5-phenyl-4,5-dihydro-1H-pyrazol-1-yl)thieno[3,2-d]pyrimidin-2-amine], the GI50 is > 500 nM in assay [1], ≥ 250 nM in assay [2] and > 500 nM in assay [5]. The IC50 in assay [3] was > 500 nM; in assay [4] it was 250 to 500 nM.

Take `CN(C)[C@H]1CCN(c2ccc(Nc3nc(N4N=CCC4c4ccccc4)c4sccc4n3)cc2)C1` (stereo partly drawn) [Example 44, N-(4-((S)-3-(dimethylamino)pyrrolidin-1-yl)phenyl)-4-(5-phenyl-4,5-dihydro-1H-pyrazol-1-yl)thieno[3,2-d]pyrimidin-2-amine]: the 50% growth inhibitory concentration (GI50) in assay [1] was > 500 nM; in assay [2], ≥ 250 nM; in assay [5] it was > 500 nM. Also, the IC50 in assay [3] and in assay [4] was > 500 nM each time.
